From patent US5434150A, “Condensed 5-membered heterocyclic compounds, processes for preparing them and pharmaceutical preparations containing these compounds” (Dr. Karl Thomae GmbH, priority 1991, dated 1995)
Structures can show the parent of a compound that is named as a salt. Where two headings read alike, the source gives them in different places.

Tests used:
[1] = tested on: platelet aggregation (platelet-rich plasma); assay: Antithrombotic activity: inhibition of collagen-induced platelet aggregation in platelet-rich plasma (Born and Cross); type: cell-based, human (healthy volunteers); conditions: 50% change in optical density, human platelet-rich plasma, 10 min preincubation
Experimental: 2. Antithrombotic Activity Method The thrombocyte aggregation is measured using the Born and Cross method (J. Physiol. 170:397 (1964)) in platelet-rich plasma taken from healthy volunteers. To inhibit coagulation the blood is mixed with 3.14% sodium citrate in a ratio by volume of 1:10. Collagen-induced aggregation The pattern of the decrease in optical density of the platelet suspension is photometrically measured and recorded after the addition of aggregation-triggering substance. The rate of aggregation is concluded from the angle of inclination of the density curve. The point on the curve where there is maximum light transmittance is used to calculate the optical density. The amount of collagen used is as small as possible but sufficient to produce an irreversible reaction curve. Standard commercial collagen produced by Hormonchemie of Munich is used. Before the addition of the collagen the plasma is incubated for 10 minutes with the substance at […]. From the measurements obtained an EC50 is determined graphically, indicating a 50% change in the optical density in terms of the inhibition of aggregation.

[2] = biological target: Human Thrombocytes; assay: Fibrinogen binding to human thrombocytes (fibrinogen binding test)
Experimental: 1. Fibrinogen Binding to Human Thrombocytes The blood obtained by puncturing an antecubital vein is anticoagulated with trisodium citrate (final concentration: 13 mM) and centrifuged for 10 minutes at 170× g. The supernatant platelet-rich plasma is poured onto a Sepharose 2B column (Pharmacia) and eluted with a solution of 90 mM common salt, 14 mM trisodium citrate, 5 mM glucose and 50 mM tris(hydroxymethyl)aminomethane, adjusted to pH 7.4. The gel-filtered platelets (GFP) appearing before the plasma proteins are used for the binding experiments. 50 μl of a 60 mM calcium chloride solution, 50 μl of a 0.6 mM adenosine diphosphate solution, 100 μl of substance solution or solvent and 50 μl of fibrinogen solution (containing 3 μg of ^125 fibrinogen) are added to 750 μl of GFP and incubated for 20 minutes at ambient temperature. The non-specific binding is determined in the presence of 3 mg/ml of cold fibrinogen. 900 μl of the incubated material are carefully pipetted onto 250 μl of silicon oil (AP 38: AR 20, 1:2 v/v, Wacker Chemie) in Eppendorf tubes and centrifuged for 2 minutes at 10,000× g. The aqueous supernatant and some of the oil are drawn off, the tips of the tubes are cut off together with the platelet pellet and the quantity of bound fibrinogen is determined in a gamma counter. The concentration of substance which brings about a 50% inhibition in fibrinogen binding is determined from a series of concentrations and is given as the IC50 value. | *^125 I fibrogen was replaced by […] |e.

[3] = tested on: mice; assay: Tolerance after intravenous administration to mice; type: in vivo; conditions: 30 mg/kg intravenous, three mice
[4] = 125I fibrinogen, 50% inhibition of fibrinogen binding, gel-filtered human platelets, ADP, 20 min ambient temperature, read-out: Fibrinogen binding test IC50
[5] = *: 125I fibrinogen replaced by 3H-(3S,5S)-5-[(amidino-biphenylyl)-oxymethyl]-carboxymethyl-pyrrolidinone ligand, read-out: Fibrinogen binding test IC50 (values marked *)

SMILES	EC50 [1]	IC50 [2, 4]	IC50 [2, 5]	deaths after intravenous administration [3]
COC(=O)CCNC(=O)c1cc2nc(-c3ccc(C(=N)N)cc3)n(C)c2cc1N(C)C(=O)OCC(C)C [3(130), 2-(4-amidino-phenyl)-6-(N-isobutyloxycarbonyl-N-methyl-amino)-5-[(2-methoxycarbonyl-ethyl)-aminocarbonyl]-1-methyl-benzimidazole]	0.16 µM	14 µM	–	–
COC(=O)CCCCn1c(=O)c2nc(-c3ccc(C(=N)N)cc3)n(C)c2n(C)c1=O [3(141), 8-(4-amidino-phenyl)-3,9-dimethyl-1-(4-methoxycarbonyl-butyl)-xanthine hyd rochloride-hydroacetate]	0.08 µM	0.14 µM	–	–
COC(=O)CCNC(=O)c1ccc2c(c1)nc(-c1ccc(C(=N)N)cc1)n2CCCN1CCS(=O)(=O)CC1 [5(6), 2-(4-amidino-phenyl)-1-[3-(S,S-dioxido-thiomorpholino)-propyl]-5-[(2-methoxycarbonyl-ethyl)-aminocarbonyl]-benzimidazole-hydrochloride]	18 µM	–	5.5 µM	–
N=C(N)c1ccc(-c2nc3cc(C(=O)NCCC(=O)OC4CCCCC4)ccc3n2CCCCc2ccccc2)cc1 [13(3), 2-(4-amidino-phenyl)-5-[(2-cyclohexyloxycarbonyl-ethyl)-aminocarbonyl]-1-(4-phenyl-butyl)-benzimidazole dihydrochloride]	4.3 µM	–	1.4 µM	–
N=C(N)c1ccc(-c2nc3cc(C(=O)NCCC(=O)OCC4CCCCC4)ccc3n2CCCCc2ccccc2)cc1 [13(6), 2-(4-amidino-phenyl)-5-[(2-cyclohexylmethyloxy-carbonyl-ethyl)-aminocarbonyl]-1-(4-phenyl-butyl)-benzimidazole dihydrochloride]	0.98 µM	–	0.13 µM	–
COC(=O)CCNC(=O)c1ccc2[nH]c(-c3ccc(C(=N)N)cc3)nc2c1 [15(1), 2-(4-amidino-phenyl)-5(6)-[(2-methoxycarbonyl-ethyl)-aminocarbonyl]-benzimidazole-hydrochloride]	4.1 µM	–	2.5 µM	–
Cn1c(-c2ccc(CN)cc2)nc2cc(C(=O)NCCC(=O)O)ccc21 [17(1), 2-(4-aminomethyl-phenyl)-5-[(2-carboxy-ethyl)-aminocarbonyl]-1-methyl-benzimidazole-dihydrobromide]	1.53 µM	0.7 µM	–	–
COc1ccc(CCn2c(-c3ccc(C(=N)N)cc3)nc3cc(C(=O)NCCC(=O)O)ccc32)cc1OC [17(2), 2-(4-amidino-phenyl)-5-[(2-carboxy-ethyl)-aminocarbonyl]-1-[2-(3,4-dimethoxy-phenyl)-ethyl]-benzimidazole-dihydrobromide]	0.08 µM	–	0.022 µM	–
N=C(N)c1ccc(-c2nc3cc(C(=O)NCCC(=O)O)ccc3n2Cc2cccnc2)cc1 [17(3), 2-(4-amidino-phenyl)-5-[(2-carboxy-ethyl)-aminocarbonyl]-1-(3-pyridylmethyl)-benzimidazole-dihydrobromide]	0.43 µM	–	0.17 µM	–
CCCCCCCCCCCCCCn1c(-c2ccc(CN)cc2)nc2cc(C(=O)NCCC(=O)O)ccc21 [17(4), 2-(4-aminomethyl-phenyl)-5-[(2-carboxy-ethyl)-aminocarbonyl]-1-n-tetradecyl-benzimidazole-dihydrobromide]	> 100 µM	–	1.9 µM	–
COc1ccc(CCn2c(-c3ccc(CN)cc3)nc3cc(C(=O)NCCC(=O)O)ccc32)cc1OC [17(5), 2-(4-aminomethyl-phenyl)-5-[(2-carboxy-ethyl)-aminocarbonyl]-1-[2-(3,4-dimethoxy-phenyl)-ethyl]-benzimidazole-dihydrobromide]	2.13 µM	–	0.37 µM	–
CCCCCCCCCCCCCCn1c(-c2ccc(C(=N)N)cc2)nc2cc(C(=O)NCCC(=O)O)ccc21 [17(6), 2-(4-amidino-phenyl)-5-[(2-carboxy-ethyl)-aminocarbonyl]-1-n-tetradecyl-benzimidazole-dihydrobromide]	30 µM	–	1.8 µM	–
N=C(N)c1ccc(-c2nc3cc(C(=O)NCCC(=O)O)ccc3n2CCCCc2ccccc2)cc1 [17(7), 2-(4-amidino-phenyl)-5-[(2-carboxy-ethyl)-aminocarbonyl]-1-(4-phenyl-butyl)-benzimidazole-dihydrobromide]	0.29 µM	–	0.0054 µM	–
N=C(N)c1ccc(-c2nc3cc(C(=O)NCCC(=O)O)ccc3n2CCc2cc(Br)c(N)c(Br)c2)cc1 [17(8), 2-(4-amidino-phenyl)-1-[2-(4-amino-3,5-dibromo-phenyl)-ethyl]-5-[(2-carboxy-ethyl)-aminocarbonyl]-benzimidazole-dihydrobromide]	0.35 µM	–	0.047 µM	–
N=C(N)c1ccc(-c2nc3cc(C(=O)NCCC(=O)O)ccc3n2CCC(c2ccccc2)c2ccccc2)cc1 [17(9), 2-(4-amidino-phenyl)-5-[(2-carboxy-ethyl)-aminocarbonyl]-1-(3,3-diphenyl-propyl)-benzimidazole-dihydrobromide]	1.14 µM	–	0.0095 µM	–
Cn1c(-c2ccc(C(=N)N)cc2)nc2cc(C(=O)N3CCCC(C(=O)O)C3)ccc21 (stereo not shown) [17(10), 2-(4-amidino-phenyl)-5-[(3-carboxy-piperidino)-carbonyl]-1-methyl-benzimidazole-dihydrobromide]	27 µM	26 µM	–	–
Cn1c(-c2ccc(C(=N)N)cc2)nc2cc(C(=O)NCCC(=O)O)cnc21 [17(13), 2-(4-amidino-phenyl)-6-[(2-carboxy-ethyl)-aminocarbonyl]-3-methyl-imidazo[4,5-b]pyridine-dihydrobromide]	0.04 µM	–	0.02 µM	–
Cn1c(-c2ccc(C(=N)N)cc2)nc2cc(C(=O)NCCC(=O)O)ccc21 [Example 1(3), 2-(4-amidino-phenyl)-5-[(2-carboxy-ethyl)-aminocarbonyl]-1-methyl-benzimidazole]	0.07 µM	0.037 µM	–	no animals died
Cn1c(-c2ccc(C(=N)N)cc2)nc2cc(C(=O)NCCCC(=O)O)ccc21 [Example 1, 2-(4-Amidino-phenyl)-5-[(3-carboxy-propyl)-aminocarbonyl]-1-methyl-benzimidazole]	27 µM	33 µM	–	–
COC(=O)CCNC(=O)c1ccc2c(c1)nc(-c1ccc(C(=N)N)cc1)n2CCCN1CC[S+]([O-])CC1 [Example 5, 2-(4-Amidino-phenyl)-5-[(2-methoxycarbonyl-ethyl)-aminocarbonyl]-1-[3-(S-oxido-thiomorpholino)-propyl]-benzimidazole-hydrochloride]	43 µM	–	15 µM	–
COC(=O)CCNC(=O)c1ccc2c(c1)nc(-c1ccc(CN)cc1)n2CCCN [Example 6, 2-(4-Aminomethyl-phenyl)-1-(3-amino-propyl)-5-[(2-methoxycarbonyl-ethyl)-aminocarbonyl]-benzimidazole]	3.7 µM	4 µM	–	–
COc1ccc(CCn2c(-c3ccc(C(=N)N)cc3)nc3cc(C(=O)NCCC(=O)OC(C)C)ccc32)cc1OC [Example 13, 2-(4-Amidino-phenyl)-1-[2-(3,4-dimethoxy-phenyl)-ethyl]-5-[(2-isopropyloxycarbonyl-ethyl)-aminocarbonyl]-benzimidazole-dihydrochloride]	5.7 µM	–	1.7 µM	–
N=C(N)c1ccc(-c2nc3cc(C(=O)NCCC(=O)O)ccc3n2CCN2CCNCC2)cc1 [Example 15, 2-(4-Amidino-phenyl)-5-[(2-carboxy-ethyl)-aminocarbonyl]-1-(2-piperazino-ethyl)-benzimidazole-hydrogen acetate]	0.04 µM	0.028 µM	–	–
NCCCn1c(-c2ccc(CN)cc2)nc2cc(C(=O)NCCC(=O)O)ccc21 [Example 17, 2-(4-Aminomethyl-phenyl)-1-(3-amino-propyl)-5-[(2-carboxy-ethyl)-aminocarbonyl]-benzimidazole-hydrogen acetate]	3.8 µM	1 µM	–	–
